Reference: patent US20220354840A1, “NICOTINE POUCH” (Enorama Pharma AB, priority 2019, published 2022)
Like-named read-outs stand apart in the source and are kept apart here.

How the values were obtained:
[1] = cited from earlier work
[2] = Stability study: degradation products by HPLC-UV; assay type: physicochemical; settings: pre-stressed sample, elevated temperature and light
Description: • nicotine release at 30 min • degradation product Pouch samples from Example 1 were stored in a plastic container with closed (but not hermetically sealed) lid at 21-22° C./60-62% RH for up to 3 months. The release of nicotine at 30 min for the pouch product stored for 1 month at 21-22° C./60-62% RH was analyzed, using the UV spectrophotometrical method described above.
Pouch samples from Example 1 were also analyzed for the detection of potential degradation products, using HPLC-UV method (Agilent 1200 series HPLC). Samples with the same excipients but without the nicotine API and samples with the nicotine API was used to identify reference (blank) peaks. A pre-stressed sample of nicotine was prepared (using elevated temperature and light) to reveal any peaks originating from heat- and light-induced degradation of nicotine. […] The obtained peaks in the chromatogram corresponds to nicotine or solvent injection peak. The chromatogram from the HPLC-UV analysis of pre-stressed sample of nicotine (FIG. 5A), which was compared to the chromatogram of nicotine bitartrate dihydrate spiked into the reference sample without API (FIG. 5B).

SMILES | Solubility in water (descriptive) [1] | other results
CC(C)[C@@H]1CC[C@@H](C)C[C@H]1O [L-Menthol] | Low soluble | –
CC1=CC(=O)NS(=O)(=O)O1 [Acesulfame K, Acesulfame potassium] | High solubility: | Solubility in water ([1]; at 20° C.): 270 mg/ml at 20 °C
CN1CCCC1c1cccnc1 (centres unmarked) [nicotine] | – | peaks from potential degradation products (HPLC-UV) [2]: No additional peaks from potential degradation products
OC[C@@H](O)[C@@H](O)[C@H](O)[C@H](O)CO [D-Mannitol] | Very soluble | Solubility in water ([1]; at 25° C.): 216 mg/ml at 25 °C
CC(O)CO (centres unmarked) [Propylene glycol] | Soluble | –
OC[C@@H](O)[C@H](O)[C@@H](O)CO [Xylitol] | Very soluble | –
